Data as given in patent US8906866B2, “Antibiotic compositions for the treatment of gram negative infections” (priority 2010, dated 2014).

Experiments:
K. pneu = test: MIC50 and MIC90, CLSI broth microdilution, panel of Gram negative strains; assay type: cell-based, Klebsiella pneumoniae; parameters: key: A: a measured MIC value equal to that of polymyxin B; a measured MIC value less than the corresponding MIC value measured for polymyxin B; a measured MIC value greater than the corresponding MIC value measured for polymyxin B; details: relative to polymyxin B; some strains multi-drug resistant
Procedure: (§1) MIC testing can be performed according to Clinical and Laboratory Standards Institute (CLSI) M7-A7 (2006) broth microdilution methods. Unless otherwise indicated, MIC values are provided in units of micrograms per milliliter.
(§2) One day prior to testing, individual colonies were isolated by streaking onto rich, non-selective Tryptic Soy agar with 5% lysed sheeps blood (TSAB) with incubation at 35-37° C. for 18-24 hours.
(§3) Cultures were prepared by touching 3-5 colonies into 3 mL of cation-adjusted Mueller Hinton Broth (caMHB) in a 14-mL tube (caMHB was prepared and sterilized according to manufacturer's specifications).
(§4) OD600 of growing cultures was measured and adjusted to approximately 10^5 colony forming units per mL (CFU/mL) in caMHB for MIC inoculation (approximately OD600 0.001).
(§5) Diluted cultures were used to inoculate 50 μL per well in broth microdilution assays (final volume 100 μl per well; compounds were prepared in two-fold dilutions).
(§6) Plates were incubated 16-20 hours at 37° C., with shaking at 200 rpm.
(§7) OD600 was determined for all wells. Growth was defined as OD600>0.1. MICs were defined as the lowest concentration producing no visible turbidity (OD600<0.1).

E. coli 1527 = test: MIC against the primary screening panel (broth microdilution); assay type: cell-based, Escherichia coli; parameters: key: A: a MIC value measurement that is the same as that observed for polymyxin B; a MIC value measured that is lower than the comparable value observed for polymxin B; a MIC value measured that is higher than the comparable value observed for polymyxin B; details: relative to polymyxin B
Procedure: (§8) Antibacterial potency can be assessed by broth microdilution according to CLSI guidelines, plates can be incubated at 37° C., and aeration (rotation at 200 rpm) can be employed. In some assays, surfactant (Survanta, Abbott Laboratories) can be added to give a final concentration of 1, 10 and 40% in caMHB. Native polymyxin A, polymyxin B and the comparator compound of Formula II (polymyxin B decapeptide with an o-chlorophenyl urea tail) were included for comparison.

[1] = Acute toxicity testing in rats; assay type: in vivo, Sprague-Dawley rat; details: 1 mg/kg i.v.
Procedure: One female Sprague-Dawley rat was administered a 1 mg/kg dose of the test Compound 5. Clinical observations were taken immediately following the administration of compound and at 0.5, 1, 2 and 4 hours post-dose.

P. aeruginosa #44 [2] = test: MIC against P. aeruginosa #44 in polystyrene plate; assay type: cell-based, Pseudomonas aeruginosa; details: range of repeated tests
Procedure: P. aeruginosa #44 were grown in cation adjusted Mueller Hinton Broth (caMHB) (catalog#B12322; Fisher Scientific, Pittsburgh, Pa.) at 37° C. MIC testing was performed according to Clinical and Laboratory Standards Institute [CLSI, formerly National Committee for Clinical Laboratory Standards (NCCLS), Wayne, Pa.] guidelines for broth microdilution. […]

E. coli [3] = test: MIC50 and MIC90, CLSI broth microdilution, panel of Gram negative strains; assay type: cell-based, Escherichia coli; parameters: key: A: a measured MIC value equal to that of polymyxin B; a measured MIC value less than the corresponding MIC value measured for polymyxin B; a measured MIC value greater than the corresponding MIC value measured for polymyxin B; details: relative to polymyxin B; some strains multi-drug resistant
Procedure: as §1, §2, §3, §4, §5, §6, §7

A. baumannii 1570 = test: MIC against the primary screening panel (broth microdilution); assay type: cell-based, Acinetobacter baumannii; parameters: key: A: a MIC value measurement that is the same as that observed for polymyxin B; a MIC value measured that is lower than the comparable value observed for polymxin B; a MIC value measured that is higher than the comparable value observed for polymyxin B; details: relative to polymyxin B
Procedure: as §8

P. aeruginosa 44 [4] = test: as above; assay type: cell-based, Pseudomonas aeruginosa; parameters: key: A: a MIC value measurement that is the same as that observed for polymyxin B; a MIC value measured that is lower than the comparable value observed for polymxin B; a MIC value measured that is higher than the comparable value observed for polymyxin B; details: relative to polymyxin B
Procedure: as §8

K. pneumoniae 933 = test: as above; assay type: cell-based, Klebsiella pneumoniae; parameters: key: A: a MIC value measurement that is the same as that observed for polymyxin B; a MIC value measured that is lower than the comparable value observed for polymxin B; a MIC value measured that is higher than the comparable value observed for polymyxin B; details: relative to polymyxin B
Procedure: as §8

P. aeruginosa 44 [5] = test: Neutropenic mouse lung infection model; assay type: in vivo
Procedure: Compound of Formula (Ia) was tested in a murine thigh model. For the thigh model, female CD-1 mice were rendered neutropenic by IP injection on days −4 and −1 with 150 and 100 mg/kg cyclophosphamide, respectively. On day 0 mice were infected with 1×10^7 colony-forming units (cfu) of A. baumannii 1570 in one thigh muscle, and then administered compound SC in a dose ranging from 2 to 12 mg/kg at 1 and 6 hours post-infection.
The mouse lung model was run in the same manner as the thigh infection model, except that mice were infected IN with 1×10^7 cfu of P. aeruginosa 44 on day 0. Doses administered in the lung study ranged from 8 to 20 mg/kg. The ED−3log10 was based on cfu determination from the lung tissue 24 hours post-infection.

E. coli [6] = test: MIC50/90 against small panels (n = 35); assay type: cell-based, Escherichia coli; parameters: key: A: a MIC value measurement that is the same as that observed for polymyxin B; a MIC value measured that is lower than the comparable value observed for polymxin B; a MIC value measured that is higher than the comparable value observed for polymyxin B; details: small panel n = 35, relative to polymyxin B
Procedure: as §8

P. aeru = test: MIC50 and MIC90, CLSI broth microdilution, panel of Gram negative strains; assay type: cell-based, Pseudomonas aeruginosa; parameters: key: A: a measured MIC value equal to that of polymyxin B; a measured MIC value less than the corresponding MIC value measured for polymyxin B; a measured MIC value greater than the corresponding MIC value measured for polymyxin B; details: relative to polymyxin B; some strains multi-drug resistant
Procedure: as §1, §2, §3, §4, §5, §6, §7

A. baumannii = test: MIC50/90 against small panels (n = 35); assay type: cell-based, Acinetobacter baumannii; parameters: key: A: a MIC value measurement that is the same as that observed for polymyxin B; a MIC value measured that is lower than the comparable value observed for polymxin B; a MIC value measured that is higher than the comparable value observed for polymyxin B; details: small panel n = 35, relative to polymyxin B
Procedure: as §8

K. pneumoniae = test: MIC50/90 against small panels (n = 35); assay type: cell-based, Klebsiella pneumoniae; parameters: key: A: a MIC value measurement that is the same as that observed for polymyxin B; a MIC value measured that is lower than the comparable value observed for polymxin B; a MIC value measured that is higher than the comparable value observed for polymyxin B; details: small panel n = 35, relative to polymyxin B
Procedure: as §8

P. aeruginosa #44 [7] = test: MICs for P. aeruginosa #44 in the presence of surfactant; assay type: cell-based, Pseudomonas aeruginosa; parameters: key: A: a MIC value measurement that is the same as that observed for polymyxin B; a MIC value measured that is lower than the comparable value observed for polymxin B; a MIC value measured that is higher than the comparable value observed for polymyxin B; details: relative to polymyxin B
Procedure: as §8

[8] = system: Gram negative bacterial strains; test: Potency and spectrum against a panel of Gram negative bacterial strains; assay type: cell-based
Description: The potency and spectrum of Compound 5 was studied using a panel of Gram negative bacterial strains.
as §1

A. baum = test: MIC50 and MIC90, CLSI broth microdilution, panel of Gram negative strains; assay type: cell-based, Acinetobacter baumannii; parameters: key: A: a measured MIC value equal to that of polymyxin B; a measured MIC value less than the corresponding MIC value measured for polymyxin B; a measured MIC value greater than the corresponding MIC value measured for polymyxin B; details: relative to polymyxin B; some strains multi-drug resistant
Procedure: as §1, §2, §3, §4, §5, §6, §7

P. aeruginosa = test: MIC50/90 against small panels (n = 35); assay type: cell-based, Pseudomonas aeruginosa; parameters: key: A: a MIC value measurement that is the same as that observed for polymyxin B; a MIC value measured that is lower than the comparable value observed for polymxin B; a MIC value measured that is higher than the comparable value observed for polymyxin B; details: small panel n = 35, relative to polymyxin B
Procedure: as §8

CC(C)C[C@H]1NC(=O)[C@H](CCN)NC(=O)[C@@H](NC(=O)[C@@H](CCN)NC(=O)[C@@H](NC(=O)[C@H](CCN)NC(=O)[C@H]2C[C@@H]2c2ccccc2)C(C)O)CCNC(=O)[C@H](C(C)O)NC(=O)[C@H](CCN)NC(=O)[C@H](CCN)NC(=O)[C@H](C(C)O)NC1=O (single isomer, unassigned) [Compound 5]
K. pneu MIC 50 (K. pneu): C
K. pneu MIC 90 (K. pneu): C
MIC E. coli 1527 (E. coli 1527): A
time by which rat had no clinical signs ([1]; 1 female Sprague-Dawley rat): ≤ 1 h
Acute (anaphylactoid) observations ([1]; female Sprague-Dawley rat): anaphylactoid response was observed
MIC against P. aeruginosa #44 In polystyrene plate (P. aeruginosa #44 [2]): 1-2 micrograms/ml
E. coli MIC50 (E. coli [3]): C
E. coli MIC90 (E. coli [3]): A
MIC A. baumannii 1570 (A. baumannii 1570): C
MIC P. aeruginosa 44 (P. aeruginosa 44 [4]): C
MIC K. pneumoniae 933 (K. pneumoniae 933): C
Lungs cleared within one log10 of limit of detection (P. aeruginosa 44 [5]; 8 through 20 mg/kg dose levels): Lungs cleared within one log10 of limit of detection
ED−3log10 (P. aeruginosa 44 [5]; neutropenic mouse lung, P. aeruginosa 44, SC, BID×1 d, cfu 24 hours post-infection): 6.35 mg/kg
E. coli MIC50 (E. coli [6]): C
E. coli MIC90 (E. coli [6]): A
P. aeru MIC 50 (P. aeru): A
P. aeru MIC 90 (P. aeru): C
A. baumannii MIC50 (A. baumannii): C
A. baumannii MIC90 (A. baumannii): C
K. pneumoniae MIC50 (K. pneumoniae): C
K. pneumoniae MIC90 (K. pneumoniae): C
MIC P. aeruginosa #44, 0% surfactant (P. aeruginosa #44 [7]; 0% surfactant): C
MIC P. aeruginosa #44, 10% surfactant (P. aeruginosa #44 [7]; 10% surfactant): B
MIC P. aeruginosa #44, 40% surfactant (P. aeruginosa #44 [7]; 40% surfactant): B
activity against E. coli, K. pneumonia, P. Aeruginosa and A. baumanni isolates [8]: active
activity against multi-drug resistant strains [8]: active against multi-drug resistant strains
A. baum MIC 50 (A. baum): C
A. baum MIC 90 (A. baum): C
P. aeruginosa MIC50 (P. aeruginosa): A
P. aeruginosa MIC90 (P. aeruginosa): C
